Broadly, the IC50 is the concentration needed to halve the response being measured.

Assay [1] has as its system RGCs in monkey retinal explants. Kind of assay: PI staining and RGC counting in retinal explants under hypoxia/reoxygenation. It is filed as cell-based, rhesus macaques (Macaca mulatta). From the text:
Globes were obtained from rhesus macaques (Macaca mulatta) at 1–7 years of age from the Oregon National Primate Research Center (Beaverton, OR, USA). The wide range of ages was unavoidable because they became available from experiments that were unrelated to the present studies. These eyes were acceptable for the purpose of our experiments. The eyes were dissected within 5 hr after death, and excised eyes were soaked in cold Hanks’ balanced salt solution (HBSS; Corning, NY, USA) or Dulbecco’s phosphate-buffered saline (DPBS; Corning). Experimental animals were handled in accordance with the Research in Vision and Ophthalmology Statement for the Use of Animals in Ophthalmic and Vision Research and with the Guiding Principles in the Care and Use of Animals (Department of Health Education and Welfare Publication National Institutes of Health 80−23).
Retina explant culture was performed as described in our previous report, except for the induction of hypoxia. Briefly, a hypoxic chamber (Coy Laboratory Products, Grass Lake, MI, USA) was controlled at 0.3% oxygen with a 95% N2/5% CO2 gas mixture. Retinas were dissected into fan-shaped explants with 6 or 7 petals (> 5 mm) in HBSS. Each explant was placed with the RGC side facing up on a Millicell organotypic standing insert (0.4 μm, 30 mm diameter, MilliporeSigma) in six-well, culture plates. They were cultured for 2 hr at 37°C under 95% N2/5% CO2 in Neurobasal-A medium supplemented with B27, N2 supplements, 2 mM L-glutamine (Thermo Fisher Scientific, Waltham, MA, USA), and 100 μg/mL primocin (Invivogen, San Diego, CA, USA). Retinal explants were then chamber-cultured under hypoxic conditions for 16 hr in a culture medium with 0.5 mM glucose, under 0.3% oxygen. The retinas were then re-oxygenated for 8 hr in a culture medium with 5.5 mM glucose. Normoxic control retinas were cultured for 24 hr in a culture medium with 5.5 mM glucose. When present, calpain inhibitors (SNJ-1945, PD-151746, C2I, and ABT-957) and cathepsin inhibitors (Odanacatib and SID26681509) in 0.1% DMSO were used at the final concentration of 10 or 100 μM in the medium. BAPTA (Thermo Fisher Scientific) and BAPTA-AM (Thermo Fisher Scientific) were also used at a final concentration of 3 or 10 mM or a final concentration of 100 or 500 μM, respectively.
All inhibitors and BAPTA were treated simultaneously with hypoxia induction, and BAPTA-AM treatment was 2 hr before hypoxia induction.
To assess the disruption of membrane barrier function, propidium iodide (PI) was utilized. Following hypoxia/reoxygenation treatment, retinal explants were incubated for 20 min in a medium containing a final concentration of 2 μg/ml of PI. For quantitative analysis, the RGC marker, RNA-binding protein with multiple splicing (RBPMS) was used at a 1:100 dilution (PhosphoSolutions, Aurora, CO, USA). RBPMS-positive and PI-positive cells in the ganglion cell layer were counted in 2 images from 2 square areas (775 × 775 μm each) located 3–5 mm and 5–7 mm away from the tips of the fan-shaped retinal flat mounts. The percentage of PI-positive RGCs was calculated as [the number of PI and RBPMS-double positive cells/the number of all RBPMS-positive cells] × 100.

In assay [2] the target is T1, human erythrocyte calpain 1 (Homo sapiens, UniProt P07384).
T1 construct: human erythrocyte calpain 1 (MilliporeSigma); purchased MilliporeSigma; host or cells: human erythrocytes
T1 sequence (P07384 1-714): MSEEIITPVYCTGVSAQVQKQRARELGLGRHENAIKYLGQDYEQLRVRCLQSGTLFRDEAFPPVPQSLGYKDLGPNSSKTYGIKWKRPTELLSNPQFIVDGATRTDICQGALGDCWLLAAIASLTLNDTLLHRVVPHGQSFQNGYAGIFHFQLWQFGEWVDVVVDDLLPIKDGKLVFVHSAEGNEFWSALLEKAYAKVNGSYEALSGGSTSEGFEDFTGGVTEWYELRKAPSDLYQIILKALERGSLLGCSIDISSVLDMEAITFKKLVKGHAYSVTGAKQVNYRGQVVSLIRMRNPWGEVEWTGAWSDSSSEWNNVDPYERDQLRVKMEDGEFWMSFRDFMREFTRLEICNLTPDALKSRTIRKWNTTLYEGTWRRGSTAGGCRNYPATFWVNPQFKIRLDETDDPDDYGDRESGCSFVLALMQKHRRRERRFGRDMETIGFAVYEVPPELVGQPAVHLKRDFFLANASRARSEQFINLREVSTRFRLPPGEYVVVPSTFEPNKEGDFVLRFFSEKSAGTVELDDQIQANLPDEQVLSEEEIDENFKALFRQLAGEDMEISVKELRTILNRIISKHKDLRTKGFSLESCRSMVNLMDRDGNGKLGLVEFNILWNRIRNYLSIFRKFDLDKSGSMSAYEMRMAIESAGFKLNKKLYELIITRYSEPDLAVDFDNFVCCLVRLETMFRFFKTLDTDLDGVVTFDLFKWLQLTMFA
T1 sequence (P04632 1-268 partner): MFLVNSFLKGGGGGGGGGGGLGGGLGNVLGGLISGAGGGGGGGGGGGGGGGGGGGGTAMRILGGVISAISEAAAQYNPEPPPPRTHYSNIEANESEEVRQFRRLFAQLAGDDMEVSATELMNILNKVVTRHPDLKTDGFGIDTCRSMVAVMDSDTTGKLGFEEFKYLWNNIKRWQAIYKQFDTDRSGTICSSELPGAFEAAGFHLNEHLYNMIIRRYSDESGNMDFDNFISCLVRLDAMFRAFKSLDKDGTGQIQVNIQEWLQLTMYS
Put plainly: Calpain-Glo Protease Assay. It is filed as biochemical. To be noted: 5 mM CaCl2, 10 min, room temperature; mean of two experiments. How it is done:
For measurement of inhibitory activities against calpains in vitro, Calpain-Glo Protease Assay (Promega; Madison, WI, USA) was performed using human erythrocyte calpain 1 (MilliporeSigma) and purified porcine calpain 2. Briefly, 24 µL of each calpain diluted with 20 mM Tris-HCl (pH 7.4), 1 µL of each inhibitor, and 25 µL of reaction buffer including CaCl2 in a 96-well plate was incubated for 10 min at room temperature. The final concentration of CaCl2 in the reaction solution was 5 mM. The luminescence was measured using a microplate reader (GloMax Discover System; Promega). IC50 values from two independent experiments were averaged.

Where [3] appears, read: 16 hr hypoxia/8 hr reoxygenation (H16R8), cathepsin inhibitor at 10 or 100 µM.

“Also recorded” adds a separate entry of the source.

Take `CCc1ccccc1NC(=O)CSC(=O)NNC(=O)[C@H](Cc1c[nH]c2ccccc12)NC(=O)OC(C)(C)C` [SID26681509]: in assay [1] (setting [3]), the “Effect on percentage of PI-positive RGCs” value was “did not reduce”. Further, half-maximal inhibition in assay [2] (IC50) was put at 81 µM.

Consider `CC(C)(F)C[C@H](N[C@@H](c1ccc(-c2ccc(S(C)(=O)=O)cc2)cc1)C(F)(F)F)C(=O)NC1(C#N)CC1` [Odanacatib], for which the “Effect on percentage of PI-positive RGCs” value in assay [1] (setting [3]) is “did not reduce”. In assay [2], this compound registered a half-maximal inhibitory concentration (IC50) of 15.9 µM.

On to `COCCOCCOC(=O)N[C@@H](CC(C)C)C(=O)N[C@@H](Cc1ccccc1)C(=O)C(=O)NC1CC1` [SNJ-1945], for which, in assay [1] (H16R8, calpain inhibitor at 100 µM), the “Effect on percentage of PI-positive RGCs” value is listed as “significantly decreased; also recorded: demonstrated efficacy in reducing PI-positive RGCs”. Further, the IC50 in assay [2] was determined as 0.077 µM.

Source of the values: PMC12250347, “Calcium-dependent pathway as a primary cause of hypoxic RGC damage in monkey retinal explants” (PLOS One, 2025).
